Key:
[1] = test system: LPS-stimulated mouse macrophage RAW264.7 cells, NO production (小鼠巨噬细胞RAW264.7细胞, 一氧化氮(NO)生成); assay: Griess assay of NO production in LPS-stimulated RAW264.7 cells; type: cell-based
MAFF protein (MAFF蛋白) [2] = target: MAFF protein (MAFF蛋白) (Homo sapiens, UniProt Q9ULX9); assay: Microscale thermophoresis (MST); type: binding
MAFF protein (MAFF蛋白) [3] = target: T1, MAFF protein (MAFF蛋白) (Mus musculus, UniProt O54791); assay: CETSA in RAW264.7 cells; type: cell-based; conditions: 40 μM, 4 h; 64-72 ℃
T1 construct: endogenous in cells; host or cells: RAW264.7
T1 sequence (O54791 whole entry): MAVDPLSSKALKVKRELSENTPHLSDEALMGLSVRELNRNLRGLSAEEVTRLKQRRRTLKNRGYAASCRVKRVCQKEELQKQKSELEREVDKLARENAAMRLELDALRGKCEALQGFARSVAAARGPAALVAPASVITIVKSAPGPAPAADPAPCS

MAFF = target: T2, MAFF (Mus musculus, UniProt O54791); assay: DARTS in RAW264.7 lysate; type: binding; conditions: 10, 20 and 40 μM; Pronase 1:1000, 37 ℃ 15 min
T2 construct: endogenous in cells; host or cells: RAW264.7
T2 sequence (O54791 whole entry): as above

[4] = test system: LPS-stimulated mouse macrophage RAW264.7 cells (小鼠巨噬细胞RAW264.7细胞); conditions: LPS-stimulated RAW264.7; earlier study of the applicant's group; read-out: IC50 (inhibition of NO production); cited from earlier work

Chain of MAFF protein (MAFF蛋白) (Homo sapiens, UniProt Q9ULX9) (Q9ULX9 whole entry, species assumed): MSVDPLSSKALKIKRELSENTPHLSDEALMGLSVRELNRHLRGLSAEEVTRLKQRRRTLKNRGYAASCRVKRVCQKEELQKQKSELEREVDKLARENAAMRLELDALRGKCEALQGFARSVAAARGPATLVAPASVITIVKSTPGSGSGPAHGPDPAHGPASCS

For `C=C1CC[C@H]2[C@@H](/C=C(\C)C(=O)[C@@]3(O)C[C@H](C)[C@H](O)[C@@H]3[C@H]1O)C2(C)C` [Lathyrol], the IC50 ([1]; Mus musculus, RAW264.7, read-out: IC50 (inhibition of NO production)) was 11.1 ± 1.14 µM, the “inhibition of LPS-stimulated NO production (in words)” value ([1]; RAW264.7, compound 3 h, then LPS 1 μg/mL 24 h) was “良好的抑制作用” and the Kd (MAFF protein (MAFF蛋白) [2]) was 20.9 ± 2.34 µM. The “thermal stability of MAFF protein” value (MAFF protein (MAFF蛋白) [3]) was “提高了MAFF蛋白的热稳定性” and the “degradation of MAFF by Pronase” value (MAFF) was “降解程度显著降低”.

For `C=C1CC[C@H]2[C@@H](/C=C(\C)C(=O)[C@@]3(OC(C)=O)C[C@H](C)[C@H](OC(=O)/C=C/c4ccccc4)[C@@H]3[C@H]1O)C2(C)C` [2S,3S,4S,5R,9S,11R,15R)-15-acetoxy-3-cinnamoyloxy-5-hydroxy-14-oxolathyra-6(17),12E-diene], the IC50 [4] is given as 3 ± 1.1 µM.

Reference: patent CN116559458A, “基于protac蛋白靶向降解技术的活性天然产物靶点鉴定方法及protac化合物” (Shenyang Pharmaceutical University, priority 2022, dated 2023)
